Assay results taken from article PMC7277225, “Structures of FOX-4 Cephamycinase in Complex with Transition-State Analog Inhibitors” (Biomolecules, 2020).

How the values were obtained:
[1] = target: T1, FOX-4 cephamycinase (class C β-lactamase) (Escherichia coli, UniProt Q9L387); assay: steady-state kinetics, nitrocefin hydrolysis, […] min pre-incubation; type: biochemical; details: read-out: FOX-4 ^1 IC50
T1 construct: native FOX-4, purified from periplasmic fractions of E. coli

[2] = target: T1, FOX-4 cephamycinase (class C β-lactamase); assay: X-ray crystal structure (soak, […] Å); IC50 with purified enzyme by nitrocefin hydrolysis; type: biochemical
[3] = target: T1, FOX-4 cephamycinase (class C β-lactamase); assay: biochemical; details: read-out: FOX-4 ^1 IC50

For `O=C(Cc1cccs1)N[C@@H](Cc1cccc(C(=O)O)c1)B(O)O` [EC04], the IC50 [1] was 420 ± 20 nM.

With `CC(C)(O/N=C(\C(=O)NCB(O)O)c1csc(N)n1)C(=O)O` [LP06] the IC50 [2] was 110 ± 20 nM.

With `CO/N=C(\C(=O)NCB(O)O)c1csc(N)n1` [CTX-like] the IC50 [1] was 260 ± 20 nM.

With `O=C(Cc1cccs1)N[C@H](B(O)O)c1cccc(C(=O)O)c1` [SM23] the IC50 [3] was 32 ± 3 nM.
